Laboratory results from the NIST ThermoML archive (doi:10.1016/j.jct.2015.11.027).

Settings: Liquid, Vibrating wire viscometry

Cc1ccccc1C [1,2-dimethylbenzene]
Settings	viscosity [mPa·s]
273.48 K, 100 kPa	1.102
273.48 K, 1000 kPa	1.113
273.48 K, 5000 kPa	1.154
273.48 K, 10000 kPa	1.209
273.48 K, 15000 kPa	1.264
273.48 K, 20000 kPa	1.319
273.48 K, 25000 kPa	1.378
273.48 K, 30000 kPa	1.436
283.21 K, 10000 kPa	1.031
283.21 K, 15000 kPa	1.075
283.21 K, 20000 kPa	1.121
283.21 K, 25000 kPa	1.169
283.21 K, 30000 kPa	1.216
283.22 K, 100 kPa	0.9464
283.22 K, 1000 kPa	0.9529
283.22 K, 5000 kPa	0.9859
293.04 K, 100 kPa	0.8196
293.04 K, 1000 kPa	0.8252
293.04 K, 5000 kPa	0.8535
293.04 K, 10000 kPa	0.8901
293.05 K, 15000 kPa	0.9269
293.05 K, 20000 kPa	0.9685
293.05 K, 25000 kPa	1.006
293.06 K, 30000 kPa	1.048
302.87 K, 100 kPa	0.7178
302.87 K, 1000 kPa	0.7228
302.87 K, 20000 kPa	0.8457
302.87 K, 25000 kPa	0.879
302.87 K, 30000 kPa	0.9126
302.88 K, 5000 kPa	0.7489
302.88 K, 10000 kPa	0.7794
302.88 K, 15000 kPa	0.8128
312.66 K, 100 kPa	0.6371
312.66 K, 10000 kPa	0.6901
312.66 K, 20000 kPa	0.7486
312.66 K, 25000 kPa	0.7781
312.66 K, 30000 kPa	0.8077
312.67 K, 1000 kPa	0.6414
312.67 K, 5000 kPa	0.6635
312.67 K, 15000 kPa	0.7185
321.85 K, 100 kPa	0.5744
321.85 K, 1000 kPa	0.5794
321.85 K, 10000 kPa	0.6241
321.85 K, 15000 kPa	0.6489
321.85 K, 30000 kPa	0.7248
321.86 K, 5000 kPa	0.5991
321.86 K, 20000 kPa	0.6748
321.86 K, 25000 kPa	0.6987
332.47 K, 100 kPa	0.515
332.47 K, 1000 kPa	0.5176
332.48 K, 5000 kPa	0.5347
332.48 K, 10000 kPa	0.5575
332.48 K, 15000 kPa	0.5798
332.48 K, 20000 kPa	0.6029
332.48 K, 25000 kPa	0.6273
332.48 K, 30000 kPa	0.6504
343.06 K, 100 kPa	0.4586
343.07 K, 1000 kPa	0.4624
343.07 K, 5000 kPa	0.4782
343.07 K, 10000 kPa	0.499
343.08 K, 15000 kPa	0.5195
343.08 K, 25000 kPa	0.5603
343.08 K, 30000 kPa	0.5817
343.09 K, 20000 kPa	0.5401
353.01 K, 30000 kPa	0.5312
353.02 K, 10000 kPa	0.4549
353.02 K, 15000 kPa	0.4725
353.02 K, 20000 kPa	0.4922
353.02 K, 25000 kPa	0.5113
353.03 K, 5000 kPa	0.4342
353.04 K, 100 kPa	0.4177
353.04 K, 1000 kPa	0.4196
362.85 K, 100 kPa	0.3838
362.85 K, 1000 kPa	0.3862
362.85 K, 5000 kPa	0.4001
362.85 K, 10000 kPa	0.4169
362.86 K, 15000 kPa	0.434
362.86 K, 20000 kPa	0.4506
362.87 K, 25000 kPa	0.469
362.87 K, 30000 kPa	0.4842
372.83 K, 100 kPa	0.3528
372.84 K, 1000 kPa	0.3556
372.84 K, 5000 kPa	0.3683
372.85 K, 10000 kPa	0.3831
372.85 K, 25000 kPa	0.4324
372.86 K, 15000 kPa	0.4015
372.86 K, 20000 kPa	0.4156
372.86 K, 30000 kPa	0.4477

Cc1cccc(C)c1 [1,3-dimethylbenzene]
Settings	viscosity [mPa·s]
273.54 K, 10000 kPa	0.8601
273.54 K, 25000 kPa	0.9681
273.54 K, 30000 kPa	1.008
273.55 K, 1000 kPa	0.8029
273.55 K, 5000 kPa	0.8274
273.55 K, 15000 kPa	0.8952
273.55 K, 20000 kPa	0.9293
273.56 K, 100 kPa	0.7948
283.24 K, 100 kPa	0.7
283.24 K, 10000 kPa	0.7574
283.25 K, 1000 kPa	0.707
283.25 K, 5000 kPa	0.7291
283.25 K, 15000 kPa	0.7883
283.25 K, 20000 kPa	0.8196
283.25 K, 25000 kPa	0.853
283.25 K, 30000 kPa	0.8858
293.06 K, 1000 kPa	0.6255
293.06 K, 20000 kPa	0.7224
293.06 K, 25000 kPa	0.7497
293.07 K, 100 kPa	0.6215
293.07 K, 5000 kPa	0.644
293.07 K, 10000 kPa	0.6692
293.07 K, 15000 kPa	0.6957
293.07 K, 30000 kPa	0.7757
302.87 K, 30000 kPa	0.6903
302.88 K, 5000 kPa	0.5751
302.88 K, 25000 kPa	0.6673
302.89 K, 15000 kPa	0.6204
302.9 K, 100 kPa	0.5542
302.9 K, 1000 kPa	0.5571
302.9 K, 10000 kPa	0.598
302.9 K, 20000 kPa	0.645
313.29 K, 1000 kPa	0.4982
313.3 K, 100 kPa	0.4952
313.3 K, 5000 kPa	0.5142
313.3 K, 10000 kPa	0.5341
313.31 K, 15000 kPa	0.5548
313.31 K, 20000 kPa	0.5757
313.31 K, 25000 kPa	0.5968
313.31 K, 30000 kPa	0.618
323 K, 10000 kPa	0.4847
323.01 K, 100 kPa	0.4499
323.01 K, 1000 kPa	0.4531
323.01 K, 5000 kPa	0.467
323.02 K, 15000 kPa	0.5032
323.02 K, 20000 kPa	0.522
323.02 K, 25000 kPa	0.5411
323.02 K, 30000 kPa	0.5599
333.1 K, 100 kPa	0.4087
333.11 K, 1000 kPa	0.411
333.11 K, 5000 kPa	0.4237
333.11 K, 10000 kPa	0.4414
333.11 K, 15000 kPa	0.4585
333.11 K, 20000 kPa	0.4756
333.12 K, 25000 kPa	0.4931
333.12 K, 30000 kPa	0.5101
342.97 K, 20000 kPa	0.4363
342.97 K, 25000 kPa	0.4516
342.97 K, 30000 kPa	0.4678
342.98 K, 100 kPa	0.3731
342.98 K, 1000 kPa	0.3761
342.98 K, 5000 kPa	0.3882
342.98 K, 10000 kPa	0.4036
342.98 K, 15000 kPa	0.4205
352.88 K, 20000 kPa	0.4014
352.88 K, 25000 kPa	0.4162
352.88 K, 30000 kPa	0.431
352.89 K, 100 kPa	0.3436
352.89 K, 1000 kPa	0.346
352.89 K, 5000 kPa	0.3581
352.89 K, 10000 kPa	0.3728
352.89 K, 15000 kPa	0.3867
362.69 K, 100 kPa	0.3175
362.7 K, 1000 kPa	0.32
362.7 K, 5000 kPa	0.3307
362.7 K, 10000 kPa	0.3452
362.71 K, 15000 kPa	0.3587
362.71 K, 20000 kPa	0.3726
362.71 K, 25000 kPa	0.3859
362.71 K, 30000 kPa	0.3995
372.5 K, 100 kPa	0.2936
372.5 K, 1000 kPa	0.2964
372.51 K, 5000 kPa	0.307
372.51 K, 10000 kPa	0.3199
372.51 K, 15000 kPa	0.3331
372.51 K, 20000 kPa	0.3463
372.51 K, 25000 kPa	0.3587
372.51 K, 30000 kPa	0.3715

Cc1ccc(C)cc1 [1,4-dimethylbenzene]
Settings	viscosity [mPa·s]
293.03 K, 15000 kPa	0.7277
293.03 K, 20000 kPa	0.7569
293.03 K, 25000 kPa	0.7883
293.03 K, 30000 kPa	0.8186
293.04 K, 100 kPa	0.6444
293.04 K, 1000 kPa	0.6494
293.04 K, 5000 kPa	0.672
293.04 K, 10000 kPa	0.6997
302.86 K, 100 kPa	0.5762
302.86 K, 1000 kPa	0.5804
302.87 K, 5000 kPa	0.5995
302.87 K, 10000 kPa	0.6244
302.88 K, 15000 kPa	0.6499
302.88 K, 20000 kPa	0.6747
302.88 K, 25000 kPa	0.7023
302.89 K, 30000 kPa	0.7274
312.76 K, 100 kPa	0.515
312.76 K, 1000 kPa	0.5186
312.76 K, 15000 kPa	0.5806
312.76 K, 20000 kPa	0.6027
312.76 K, 25000 kPa	0.6263
312.76 K, 30000 kPa	0.6494
312.77 K, 5000 kPa	0.5356
312.77 K, 10000 kPa	0.5575
322.62 K, 100 kPa	0.4653
322.63 K, 1000 kPa	0.4689
322.64 K, 5000 kPa	0.4833
322.64 K, 10000 kPa	0.5038
322.64 K, 15000 kPa	0.524
322.64 K, 20000 kPa	0.5442
322.64 K, 25000 kPa	0.5653
322.65 K, 30000 kPa	0.5861
332.57 K, 30000 kPa	0.5304
332.58 K, 100 kPa	0.4206
332.58 K, 1000 kPa	0.4237
332.58 K, 5000 kPa	0.4383
332.58 K, 10000 kPa	0.4564
332.58 K, 15000 kPa	0.4745
332.58 K, 20000 kPa	0.493
332.58 K, 25000 kPa	0.5109
342.27 K, 100 kPa	0.3815
342.27 K, 1000 kPa	0.3842
342.28 K, 5000 kPa	0.3977
342.28 K, 10000 kPa	0.4144
342.28 K, 20000 kPa	0.4482
342.29 K, 15000 kPa	0.4314
342.29 K, 25000 kPa	0.4649
342.29 K, 30000 kPa	0.4833
352.2 K, 5000 kPa	0.3634
352.2 K, 10000 kPa	0.3791
352.2 K, 15000 kPa	0.3945
352.2 K, 20000 kPa	0.4111
352.2 K, 25000 kPa	0.4263
352.2 K, 30000 kPa	0.4423
352.21 K, 100 kPa	0.3483
352.21 K, 1000 kPa	0.3507
362.73 K, 100 kPa	0.3194
362.74 K, 1000 kPa	0.3217
362.75 K, 5000 kPa	0.3331
362.76 K, 10000 kPa	0.3467
362.76 K, 15000 kPa	0.3616
362.77 K, 20000 kPa	0.3756
362.81 K, 25000 kPa	0.3915
362.82 K, 30000 kPa	0.405
372.69 K, 20000 kPa	0.348
372.69 K, 25000 kPa	0.3614
372.69 K, 30000 kPa	0.3752
372.7 K, 10000 kPa	0.3203
372.7 K, 15000 kPa	0.3341
372.71 K, 100 kPa	0.2936
372.71 K, 1000 kPa	0.296
372.71 K, 5000 kPa	0.3061
